Here are results for 1 compound from US9861592B2, “Methods and compositions for treating neurodegenerative diseases” (Golden Biotechnology Corporation, priority 2012, dated 2018).

Values after ≈ are worked out from the molar mass of the structure shown.

In this assay the test system is PC12 cells. Kind of assay: CCK-8 cell viability assay, titration of Compound 1 in NGF-induced PC12 cells. In kind it is cell-based. The settings on record: Rattus norvegicus, PC-12, 48 h. The protocol: Rat pheochromocytoma PC12 cells, purchased from Bioresource Collection and Research Center (BCRC), were cultured in RPMI1640 medium (Gibco, MD) containing 10% fetal calf serum, 5% horse donor serum, 100 μg/ml streptomycin, 100 units/ml penicillin, 2 mM L-glutamine, and maintained in humidified incubator at 37° C. with 5% CO2. Cells were transferred twice a week. Experiments were carried out in 96-well plates coated with poly-D-lysine (1 mg/mL) to assist cell adhesion. PC12 cells were grown on medium with mouse submaxillary-gland nerve growth factor (NGF 2.5S, 100 ng/ml; Invitrogen, Carlsbad, Calif.) for 48 h to induce differentiation into neuron-like cells before all experiments conducted in this study.
To optimize the exemplary Compound 1 concentration for NGF-induced PC12 neural model, titration experiments were performed to determine the IC50 values of Compound 1 in PC12. PC12 Cells (1×10^4 cells) were incubated with various concentrations of Compound 1 (0.001, 0.01, 0.1, 1, 10, 100 μg/ml in a 10% serum-supplemented medium; 0.3, 1, 3, 10, 30, 100 μg/ml in serum-free medium) for 48 h.
The viability of cells was measured using the Cell Counting Kit-8 (CCK-8, Enzo, Life Sciences). A highly water-soluble tetrazolium salt, WST-8, is reduced by dehydrogenases in cells to give a yellow-colored product (formazan), which is soluble in the culture medium. The amount of the fomazan dye generated by the activity of dehydrogenases in cells is directly proportional to the number of living cells. After treatments, the CCK-8 solution was added to each well of plates and incubates the plate for 4 h in the incubator. The concentration of the formazan product was determined spectrophotometrically at an absorbance wavelength 450 nm and cell viability was expressed as a percentage of the corresponding control.

`COC1=C(OC)C(O)C(C/C=C(\C)CC/C=C(\C)CCC=C(C)C)C(C)C1=O` (stereo not drawn) [Compound 1, 4-hydroxy-2,3-dimethoxy-6-methyl-5-(3,7,11-trimethyldodeca-2,6,10-trienyl)cyclohex-2-enone]: the IC50 reads like this: (PC12, 10% serum supplemented media, unit as printed in b23) 58 µg/mL (≈ 148 µM); (PC12, 10% serum supplemented media, unit as printed in b151) 58 µg/mL (≈ 148 µM); (PC12, serum-free media) 13.4 µg/mL (≈ 34.3 µM).

One may read the IC50 as the concentration needed to halve the response being measured. A higher IC50 goes with weaker potency in that assay.
